Results reported in patent US6521640B1, “Method for interviewing neuronal death using sulfasalazine” (Neurotech Co., Ltd., priority 2000, dated 2003).

How the values were obtained:
[1] = system: cocultures of mouse cortical neurons and glia; assay: NMDA-induced neuronal death (LDH efflux) in cortical cell cultures; format: cell-based; details: for NMDA neurotoxicity (neuronal death 24 hr later): 300 μM NMDA for 10 min
Description: FIG. 2 is a graph plotting a dose-response effect of sulfasalazine against neuronal death 24 hr following a brief exposure to 300 μM NMDA. Cocultures of mouse cortical neurons and glia (DIV 12-14) were exposed to 300 μM NMDA for 10 min, alone or with inclusion of 10-1000 μM sulfasalazine. Neuronal death was analyzed by measuring LDH efflux into the bathing medium 24 hr later, mean ± S.E.M. (n−8−16 cultrues per condition), scaled to the mean LDH value corresponding to the near-complete neuronal death induced by 24 hr exposure to 500 μM NMDA (=100%). Asterisk indicates significant difference from relevant control (NMDA alone), at ρ<0.05 using ANOVA and Student-Neuman-Keuls' test.
FIG. 3 is a graph plotting neuroprotective effects of sulfasalazine against dose-dependent neurotoxicity by NMDA. Cortical cell cultures were exposed to 30-1000 μM NMDA for 10 min, alone or in the presence of 300 or 1000 μM sulfasalazine. Neuronal death was analyzed by measuring LDH efflux into the bathing medium 24 hr later, mean ± S.E.M. (n=8−16 cultures per condition). Asterisk indicates significant difference from relevant control (NMDA alone), at ρ<0.05 using ANOVA and Student-Neuman-Keuls' test.
(§1) Primary cortical cell cultrues from embryonic mice were prepared and used to examine neuroprotective action of compounds. Mouse cortical cell culture system has been extensively used to study mechanisms and pharmacological intervention of neuronal death in neurological diseases. In brief, mouse cerebral coritces were removed from brains of the 15 day—old—fetal mice, in accordance with a protocol approved by our institutional animal care committee. The neocortices were gently triturated and plated on 24 well plates (5 hemispheres/plate) precoated with 100 μg/ml poly-D-lysine and 4 μg/ml laminine. […]
(§2) Overall cell injury was assessed microscopically under phase-contrast optics or by measuring amount of lactate dehydrogenase (LDH) released into the bathing medium 24 hr after neurotoxic insults as previously described (Koh and Choi, J Neurosci Methods 20:83-90, 1987). […]

cortical neurons = assay: NMDA-induced accumulation of intracellular free Ca2+ (fluo-3); format: cell-based, mouse; details: 300 μM NMDA; 300 μM sulfasalazine
Description: FIG. 4 is a graph plotting effects of sulfasalazine against NMDA-induced accumulation of intracellular free Ca^2+. […] [Ca^2+], was analyzed in fluo-3-loaded neutrons immediately after treatment, mean ± S.E.M. (n÷55−94 randomly chosen neurons in 4-6 glass bottom dishes per condition), scaled to [Ca^2+], after the sham control (÷100%). Asterisk indicates significant difference from relevant control (NMDA alone), at ρ<0.05 using ANOVA and Student-Neuman-Keuls' test.
as §1
Levels of intracellular free Ca^2+ ([Ca^2+]i) were analyzed using a Ca^2+ sensitive indicator flou-3 under a fluorescence microphotometry (Minta A. Kao J P. Tsien R Y. 1989, J Bio Chem. 264:8171-8178). […] The fluroescence images were analyzed using a QuantiCell 700 system (Applied Imaging, England).

cortical cell cultures [2] = assay: NMDA-induced 45Ca2+ uptake; format: cell-based, mouse; details: for 45Ca2+ influx after NMDA: 300 μM NMDA, 10 min
Description: FIG. 5 is a graph plotting effects of sulfasalazine against NMDA-induced ^45Ca^2+ uptake. Cortical cell cultrues (DIV 12-14) were exposed to a sham wash (control) or 300 μM NMDA, alone or in the presence of 30-1000 μM sulfasalazine. Ca^2+ influx was analyzed 10 min later by measuring ^45Ca^2+ influx, mean ± S.E.M. (n=12 cultures per condition). Asterisk indicates significant difference from relevant control (NMDA alone), at ρ<0.05 using ANOVA and Student-Neuman-Keuls' test.
Primary cortical cell cultrues from embryonic mice were prepared and used to examine neuroprotective action of compounds. Mouse cortical cell culture system has been extensively used to study mechanisms and pharmacological intervention of neuronal death in neurological diseases. In brief, mouse cerebral coritces were removed from brains of the 15 day—old—fetal mice, in accordance with a protocol approved by our institutional animal care committee. The neocortices were gently triturated and plated on 24 well plates (5 hemispheres/plate) precoated with 100 μg/ml poly-D-lysine and 4 μg/ml laminine. Plating media consist of Eagles minimal essential media (MEM, Earles salts, supplied glutamine-free) supplemented with 5% horse serum, 5% fetal bovine serum, 2 mM glutamine, and 21 mM glucose. Cultures were maintained at 37° C. in a humidified 5% CO2 atmosphere. After 7 days in vitro (DIV 7), cultures were shifted into a growth medium identical to the plating medium but lacking fetal serum. At DIV 7-9, […] cytosine arabinofuranoside was included to halt overgrowth of glia. Mixed cultures of neurons and glia were then fed twice a week.
To analyze Ca^2+ uptake, cortical cell cultures (DIV 13-14) were added with 300 μM NMDA and 1.5 μCi ^45Ca^2+ for 10 min, washed thoroughly with HCSS, and lysed in 0.2% SDS. Levels of ^45Ca^2+ in the lysates were read in a Beckman Scintillation counter.

[3] = system: cocultures of cortical neurons and glia; assay: Fe2+-induced free radical neuronal death (LDH); format: cell-based, mouse; details: 50 μM Fe2+; 30-300 μM sulfasalazine concurrent
Description: FIG. 6 is a graph plotting a dose-response effect of sulfasalazine against neuronal death following 24 hr-exposure to 50 μM Fe^2+. […] Neuronal death was assessed 24 hr later by measurement of LDH released into the bathing medium, means ± S.E.M. (n=4 12 culture wells per condition). Asterisk indicates significant difference from relevant control (Fe^2+ alone) at ρ<0.05, using ANOVA and Student-Neuman-Keuls' test.
as §1, §2

[4] = system: cocultures of cortical neurons and glia; assay: BSO-induced free radical neuronal death (LDH); format: cell-based, mouse; details: 10 mM BSO; 30-300 μM sulfasalazine concurrent
Description: FIG. 7 is a graph plotting a dose-response effect of sulfasalazine against neuronal death following 24 hr-exposure to 10 mM BSO. Cortical cell cultures (DIV 12-14) were exposed to 10 mM L-buthionine-(S,R)-sulfoximine (BSO), alone or with 30-300 μM sulfasalazine. Neuronal death was assessed 24 hr later by measurement of LDH released into the bathing medium, mean ± SEM (n=8 culture wells per condition). Asterisk indicates significant difference from relevant control (BSO alone) at ρ<0.05, using ANOVA and Student-Neuman-Keuls' test.
as §1, §2

cortical cell cultures [5] = assay: Fe2+-induced production of reactive oxygen species (DCDHF fluorescence); format: cell-based, mouse
Description: FIG. 8 is a graph plotting effects of sulfasalazine against Fe^2+-induced production of reactive oxygen species. Cortical cell cultures (DIV 13-14) were exposed to a sham wash (control) or 50 μM Fe^2+, alone or with 100 μM sulfasalazine for the indicated points of time. Levels of ROS in neurons were analyzed by monitoring the fluorescent signal of oxidized DCDHF, mean ± S.E.M. (n=53−80 neurons randomly chosen under a phase-contrast optic). Asterisk indicates significant difference from the relevant control (Fe^2+ alone in each time point) at ρ<0.05 using ANOVA and Student-Neuman-Keuls' test.
Primary cortical cell cultrues from embryonic mice were prepared and used to examine neuroprotective action of compounds. […]
To analyze reactive oxygen species in cortical cells, cortical cultures were loaded with 10 μM 6-carboxy-2′,7′-dichlorodihydrofluorescein diacetate (DCDHF-DA) plus 2% Pluronic F-127 in HCSS solution containing (120 mM NaCl, 5 mM KCl, 1.6 mM MgCl2, 2.3 mM CaCl2, 15 mM Glucose, 20 mM HEPES, 10 mM NaOH) for 20 minutes at 37° C., washed three times with HCSS solution, and the fluorescence signal of DCF (Ex 1=488 nm, Em 1=510 nm), the oxidation product of DCDHF-DA, was analyzed on the stage of a Nikon Diaphot inverted microscope equipped with a 100W Xenon lamp and a Nikon 20X, 0.4 N.A. objective.

cortical cell cultures [6] = assay: Zn2+ neurotoxicity (LDH); format: cell-based, mouse; details: 300 μM Zn2+ for 30 min; 10-100 μM sulfasalazine concurrent
Description: FIG. 9 is a graph plotting a dose-response effect of sulfasalazine against neuronal death 24 hr following exposure to 300 μM Zn^2+ for 30 min. Cortical cell cultures were exposed to 30-500 μM Zn^2+ for 30 min, alone (filled circles) or with inclusion of 100 μM sulfasalazine (open circles). Neuronal death was assessed 24 hr later by measurement of LDH released into the bathing medium, mean ± SEM (n=8 culture wells per condition). Asterisk indicates significant difference from relevant control (Zn^2+ alone) at ρ<0.05, using ANOVA and Student-Neuman-Keuls' test.
as §1, with “committee.” for “committee. The neocortices were gently triturated and plated on 24 well plates (5 hemispheres/plate) precoated with 100 μg/ml poly-D-lysine and 4 μg/ml laminine.”
as §2

cortical cell cultures [7] = assay: Zn2+ entry into cortical cells (TSQ fluorescence); format: cell-based, mouse
Description: FIG. 10 is a graph plotting effects of sulfasalazine reducing Zn^2 entry into cortical cells. Sister cultures were exposed to 300 μM Zn^2+ for 30 min, alone or with inclusion of 30-300 μM sulfasalazine. Zn^2+ entry was assessed 30 min later by measuring fluorescence intensity of TSQ, a Zn^2+ chelating agent. (n=8 culture wells per condition). Asterisk indicates significant difference from relevant control (Zn^2 alone) at ρ<0.05, using ANOVA and Student-Neuman-Keuls' test.
as §1, with “committee.” for “committee. The neocortices were gently triturated and plated on 24 well plates (5 hemispheres/plate) precoated with 100 μg/ml poly-D-lysine and 4 μg/ml laminine.”
Entry and accumulation of Zn^2+ into neurons were analyzed using TSQ (N-(6-methoxy-8-quinolyl)-p-toluene sulfonamide), a membrane-permeable Zn^2+-chelating dye (Weiss J H, Hartley D M, Koh J Y, Choi D W, 1993, Neuron, 10:43-49). Cultures were incubated in HCSS containing 0.01% TSQ for 5 min, observed under fluorescence microscopy with a UV filter (excitation 365 nm, dichroic 400 nm, barrier 450 nm), and the intensity of TSQ was analyzed using a fluorescence plate reader.

cortical cell cultures [8] = assay: Neuronal death after oxygen and glucose deprivation (LDH); format: cell-based, mouse; details: 300 μM sulfasalazine
Description: FIG. 11 is a graph plotting neuroprotective effects of sulfasalazine against deprivation of oxygen and glucose. Cortical cell cultures (DIV 14) were deprived of oxygen and glucose (OGD) for 45, 60 or 90 min, alone (black bars) or with inclusion of 300 μM sulfasalazine (gray bars). Neuronal death was assessed 24 hr later by measurement of LDH released into the bathing medium, mean ± SEM (n=4 culture wells per condition). Asterisk indicates significant difference from relevant control (OGD alone) at ρ<0.05, using ANOVA and Student-Neuman-Keuls' test.
Primary cortical cell cultrues from embryonic mice were prepared and used to examine neuroprotective action of compounds. Mouse cortical cell culture system has been extensively used to study mechanisms and pharmacological intervention of neuronal death in neurological diseases. […]
Oxygen or glucose deprivation: cortical cell cultures (DIV 15-17) were transferred to an anacrobic chamber containing 5% CO2, 10% H2, and 85% N2 as described before (Gwag B J, Lobner D, Koh J Y, Wie M B, and Choi D W, 1995, Neuroscience, 68:615-619). […] Neuronal injury was quantified 24 hr later.
as §2

[9] = man, 3-5 hrs after oral ingestion of a single 4 g dose; cited from earlier work

With `O=C(O)c1cc(/N=N/c2ccc(S(=O)(=O)Nc3ccccn3)cc2)ccc1O` [sulfasalazine] the “NMDA neurotoxicity (neuronal death 24 hr later)” value ([1]; 1 mM sulfasalazine) was “completely blocked”, the “NMDA neurotoxicity (neuronal death 24 hr later)” value ([1]; 100-300 μM sulfasalazine concurrent) was “partially reduced” and the “neuroprotective effects with increasing doses of NMDA” value ([1]; NMDA up to 1 mM for 10 min, 300 or 1000 μM sulfasalazine) was “did not interfere with the neuroprotective effects”. The “NMDA-induced accumulation of [Ca2+]i” value (cortical neurons) was “markedly reduced”, the “45Ca2+ influx after NMDA” value (cortical cell cultures [2]; 300 μM sulfasalazine) was “partially reduced” and the “45Ca2+ influx after NMDA” value (cortical cell cultures [2]; 1000 μM sulfasalazine) was “completely blocked”. The “doses preventing influx and accumulation of Ca2+” value (cortical cell cultures [2]; summary statement) was 30-1,000 μM, the “neuronal death 24 hr following continuous exposure to Fe2+” value [3] was “dose-dependently reduced” and the “neuronal death 24 hr following continuous exposure to BSO” value [4] was “dose-dependently reduced”. The “production of ROS following exposure to Fe2+” value (cortical cell cultures [5]; 50 μM Fe2+, 100 μM sulfasalazine) was “reduced production of ROS”, the “doses scavenging reactive oxygen species” value (cortical cell cultures [5]; summary statement) was 3 to 100 µM and the “Zn2+ neurotoxicity” value (cortical cell cultures [6]) was “reduced Zn^2+ neurotoxicity in a dose-dependent manner”. For the same molecule, the “Zn2+ entry” value (cortical cell cultures [7]; 300 μM Zn2+ for 30 min, 300 μM sulfasalazine) was “slightly but significantly reduced”, the “doses preventing influx and accumulation of Zn2+” value (cortical cell cultures [7]; summary statement) was 30-1,000 μM and the “neuroprotective effects after prolonged deprivation of oxygen and glucose” value (cortical cell cultures [8]; OGD extended to 90 min) was “decreased”. For the same molecule, the “neuronal death following deprivation of oxygen and glucose” value (cortical cell cultures [8]; OGD for 45-60 min) was “markedly reduced” and the serum concentrations [9] was “approximately 500 μM”.
